Experiments:
Type in all cases: cell-based
[1] = target: T1, hCB2 (Homo sapiens, UniProt P34972); assay: cAMP assay (LANCE TR-FRET) in CHO-K1 cells stably expressing hCB2, agonist/inverse agonist; conditions: intracellular cAMP, CHO-K1 hCB2 cells prestimulated with NKH-477; + agonist, − inverse agonist
T1 construct: host or cells: CHO-K1
Method: (§1) The ability of compounds to act as agonists or inverse agonists at human CB2 and CB1 receptors (hCB2, hCB1, respectively) was determined by measuring changes in intracellular cAMP levels. Chinese Hamster Ovary (CHO-K1) cell lines stably expressing hCB2 (Genebank: X74328) or hCB1 (Genebank: X54937) were purchased from Euroscreen (Gosselies, Belgium).
(§2) Cell lines were grown in suspension in EX-CELL 302 CHO Serum-free medium (Sigma, cat #14324C) supplemented with 1% Fetal Bovine Serum, glutamine and non-essential amino-acids under 0.4 mg/mL G418 selection.
(§3) Receptor mediated responses were determined by measuring changes in intracellular cAMP using LANCE cAMP detection kit (cat #AD0264, PerkinElmer, Wellesley, Mass.) based on time-resolved fluorescence resonance energy transfer (TR-FRET). Changes in cAMP were determined in cells pre-incubated with IBMX (isobutyl methylxanthine) and prestimulated with NKH-477 (a water soluble forskolin derivative, cat #1603, Tocris, Ellisville, Mo.) to increase basal cAMP levels as detailed below.
(§4) On the day of the experiment, cells were spun at low speed for 5 min at room temperature. The supernatant was removed and cells were resuspended in stimulation buffer (Hanks Buffered Salt Solution/5 mM HEPES, containing 0.5 mM IBMX (cat #17018, Sigma) and 0.02% BSA (PerkinElmer, cat #CR84-100)). Cell clumps were removed by filtering through cell strainer 40 μm (BD Falcon, Discovery Labware, Bedford, Mass.) and diluted to 2×10^5 cells/mL. Antibody supplied with the LANCE cAMP immunoassay kit was then added according to the manufacturer's instructions. An aliquot of cells was taken for un-induced controls. To the remaining cells was added NKH-477 (a water soluble forskolin derivative, Tocris cat #1603) to a final concentration of 2-8 μM. Cells were then incubated for 30 min at room temperature prior to adding to Proxiplates containing test compounds (final DMSO concentration was less than 0.5%) with a Multidrop bulk dispenser, followed by a sixty minute incubation at room temperature. The response was stopped by addition of the detection mix supplied with the LANCE kit.
(§5) The reagents were allowed to equilibrate for three hours prior to reading on an Envision multi-mode detector (PerkinElmer). TR-FRET was measured using a 330-380 nm excitation filter, a 665 nm emission filter, dichroic mirror 380 nm and Z=1 mm.
(§6) Cyclic AMP concentrations in each well were back-calculated from a cAMP standard curve run concurrently during each assay. Each plate contained 16 wells of forskolin stimulated cells and 16 wells of forskolin plus CP55,940-treated. CP55,940-treated cells were treated with CP55,940 (Tocris cat. # 0949) at 1 μm and the maximal response was used as the full range (100%) standard. WIN55,212 (Tocris cat. # 1038) was used as an internal standard. Concentrations of cAMP were expressed as a percent of the difference of these two groups of wells. Concentration-response data including ECso (the concentration of compound producing 50% of the maximal response) and intrinsic activity (the percent maximal activation compared to full activation by CP55,940) were determined using a four-parameter non-linear regression algorithm (Xlfit equation 251, IDBS).

[2] = target: T2, rCB2 (Rattus norvegicus, UniProt Q9QZN9); assay: cAMP assay, rCB2 in Table 7, agonist/inverse agonist; conditions: intracellular cAMP; + agonist, − inverse agonist
T2 sequence (Q9QZN9 1-360): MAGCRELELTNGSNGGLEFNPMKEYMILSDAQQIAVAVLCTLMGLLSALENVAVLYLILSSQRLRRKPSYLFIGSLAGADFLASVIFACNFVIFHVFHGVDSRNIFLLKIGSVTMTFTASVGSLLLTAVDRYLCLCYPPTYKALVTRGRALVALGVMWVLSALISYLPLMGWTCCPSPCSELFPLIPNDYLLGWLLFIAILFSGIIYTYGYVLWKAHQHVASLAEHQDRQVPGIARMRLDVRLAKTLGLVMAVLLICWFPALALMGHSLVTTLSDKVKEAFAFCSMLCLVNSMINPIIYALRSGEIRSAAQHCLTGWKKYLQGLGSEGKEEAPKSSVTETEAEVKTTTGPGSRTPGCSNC
Method: as §3, §4, §5, §6

[3] = target: T3, hCB1 (Homo sapiens, UniProt P21554); assay: cAMP assay (LANCE TR-FRET) in CHO-K1 cells stably expressing hCB1, agonist/inverse agonist; conditions: intracellular cAMP, CHO-K1 hCB1 cells prestimulated with NKH-477, + agonist, − inverse agonist; for EC50: read-out: hCB1 EC50 class
T3 construct: host or cells: CHO-K1
Method: as §1, §2, §3, §4, §5, §6

T3 sequence (P21554 whole entry): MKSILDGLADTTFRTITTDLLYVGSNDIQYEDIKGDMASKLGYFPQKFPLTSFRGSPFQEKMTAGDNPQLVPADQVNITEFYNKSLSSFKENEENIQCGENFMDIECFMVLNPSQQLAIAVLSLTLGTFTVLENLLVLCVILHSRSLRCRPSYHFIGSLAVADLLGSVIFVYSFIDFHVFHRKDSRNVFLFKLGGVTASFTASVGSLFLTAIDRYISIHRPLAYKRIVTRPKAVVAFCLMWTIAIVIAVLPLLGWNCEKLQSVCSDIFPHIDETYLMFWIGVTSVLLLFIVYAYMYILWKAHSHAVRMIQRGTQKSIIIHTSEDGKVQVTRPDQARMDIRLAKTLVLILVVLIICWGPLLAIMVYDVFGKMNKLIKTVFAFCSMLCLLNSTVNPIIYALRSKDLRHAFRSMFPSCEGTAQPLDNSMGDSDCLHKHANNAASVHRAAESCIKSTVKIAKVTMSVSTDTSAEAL
T1 sequence (P34972 whole entry): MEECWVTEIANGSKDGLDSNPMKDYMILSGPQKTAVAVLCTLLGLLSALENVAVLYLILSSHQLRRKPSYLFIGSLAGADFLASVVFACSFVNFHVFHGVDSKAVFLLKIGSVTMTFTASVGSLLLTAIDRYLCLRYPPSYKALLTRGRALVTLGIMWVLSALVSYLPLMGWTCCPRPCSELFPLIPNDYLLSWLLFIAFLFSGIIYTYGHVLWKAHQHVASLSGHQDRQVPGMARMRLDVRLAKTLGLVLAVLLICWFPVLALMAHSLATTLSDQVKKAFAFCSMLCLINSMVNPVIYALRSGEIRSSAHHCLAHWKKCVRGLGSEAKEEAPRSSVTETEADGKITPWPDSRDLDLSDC

| Structure (SMILES) | hCB2 EC50 class [1] | rCB2 EC50 class [2] | EC50 [3] | hCB1 EC50 class [3] |
| --- | --- | --- | --- | --- |
| CC(=O)N1CCc2c(cc(-c3ccc(C(F)(F)F)cc3)c(=O)n2CC2CCC2)C1 [Compound 44, 6-acetyl-1-(cyclobutylmethyl)-3-(4-(trifluoromethyl)phenyl)-5,6,7,8-tetrahydro-1,6-naphthyridin-2(1H)-one] | +B | +B | > 10 µM | – |
| CC(=O)N1CCc2c(cc(-c3cccnc3)c(=O)n2CC2CCC2)C1 [Compound 46, 6-acetyl-1-(cyclobutylmethyl)-3-(pyridin-3-yl)-5,6,7,8-tetrahydro-1,6-naphthyridin-2(1H)-one] | +B | +B | > 10 µM | – |
| CS(=O)(=O)N1CCc2c(cc(-c3cccc(Cl)c3)c(=O)n2CC2CC2)C1 [Compound 48, 3-(3-chlorophenyl)-1-(cyclopropylmethyl)-6-(methylsulfonyl)-5,6,7,8-tetrahydro-1,6-naphthyridin-2(1H)-one] | +A | +A | > 10 µM | – |
| CCS(=O)(=O)N1CCc2c(cc(-c3cccc(Cl)c3)c(=O)n2CC2CC2)C1 [Compound 49, 3-(3-chlorophenyl)-1-(cyclopropylmethyl)-6-(ethylsulfonyl)-5,6,7,8-tetrahydro-1,6-naphthyridin-2(1H)-one] | +B | +B | > 10 µM | – |
| CC(C)CS(=O)(=O)N1CCc2c(cc(-c3cccc(Cl)c3)c(=O)n2CC2CC2)C1 [Compound 50, 3-(3-chlorophenyl)-1-(cyclopropylmethyl)-6-(isobutylsulfonyl)-5,6,7,8-tetrahydro-1,6-naphthyridin-2(1H)-one] | +C | −B | – | −B |
| COc1cccc(-c2cc3c(n(CC4CCC4)c2=O)CCN(S(C)(=O)=O)C3)c1 [Compound 52, 1-(cyclobutylmethyl)-3-(3-methoxyphenyl)-6-(methylsulfonyl)-5,6,7,8-tetrahydro-1,6-naphthyridin-2(1H)-one] | +B | +A | > 10 µM | – |
| CS(=O)(=O)N1CCc2c(cc(-c3ccccc3F)c(=O)n2CC2CCC2)C1 [Compound 53, 1-(cyclobutylmethyl)-3-(2-fluorophenyl)-6-(methylsulfonyl)-5,6,7,8-tetrahydro-1,6-naphthyridin-2(1H)-one] | +A | +A | > 10 µM | – |
| CC(=O)N1CCc2c(cc(-c3ccccc3F)c(=O)n2CC2CCC2)C1 [Compound 54, 6-acetyl-1-(cyclobutylmethyl)-3-(2-fluorophenyl)-5,6,7,8-tetrahydro-1,6-naphthyridin-2(1H)-one] | +B | +A | > 10 µM | – |
| CS(=O)(=O)N1CCc2c(cc(Cc3ccccc3F)c(=O)n2CC2CCC2)C1 [Compound 58, 1-(cyclobutylmethyl)-3-(2-fluorobenzyl)-6-(methylsulfonyl)-5,6,7,8-tetrahydro-1,6-naphthyridin-2(1H)-one] | +A | +A | – | +B |

From patent US20080161340A1, “Tetrahydroquinilinones, tetrahydronaphthyridones and derivatives thereof” (priority 2006, published 2008)
